From paper PMC4608732, “Phosphorylation and Internalization of Lysophosphatidic Acid Receptors LPA1, LPA2, and LPA3” (PLoS ONE, 2015)

What was measured:
LPA1 receptor [1] = molecular target: T1, LPA1 receptor (Mus musculus, UniProt P61793); assay: LPA1 receptor phosphorylation ([32P]Pi labeling, immunoprecipitation); type: cell-based
T1 construct: expressed in transfected cells
Procedure: (§1) The procedure was very similar to that previously described to study LPA1 receptor phosphorylation. In brief, cells were incubated in phosphate-free Dulbecco’s modified Eagle’s medium containing 100 μCi/ml [^32P]Pi for 3 h at 37°C. LPA1- and LPA2-expressing cells were cultured in 6 well plates, whereas those expressing LPA3 receptors were cultured in 10 cm dishes. Labeled cells were stimulated with the agents tested and then washed twice with ice-cold phosphate buffered saline and solubilized in buffer containing 10 mM Tris, 150 mM NaCl, 1% sodium cholate, 1% Nonident P40, protease and phosphatase inhibitors, pH 7.4 [11, 12, 14]. The lysates were incubated overnight with protein A-agarose and anti-GFP serum with constant agitation at 4°C. Samples were washed and the pellets containing the immunocomplexes were solubilized in Laemmli’s sample buffer containing 5% β-mercaptoethanol. Proteins were separated using 10% SDS-PAGE and electrotransferred onto polyvinyliden fluoride membranes. Receptor phosphorylation was analyzed with a Molecular Dynamics Typhoon PhosphorImager and the ImageJ software (http://rsb.info.nih.gov/ij/).

LPA2 receptor [2] = molecular target: T2, LPA2 receptor (Homo sapiens, UniProt Q9HBW0); assay: LPA2 receptor phosphorylation ([32P]Pi labeling, immunoprecipitation); type: cell-based
T2 sequence (Q9HBW0 whole entry): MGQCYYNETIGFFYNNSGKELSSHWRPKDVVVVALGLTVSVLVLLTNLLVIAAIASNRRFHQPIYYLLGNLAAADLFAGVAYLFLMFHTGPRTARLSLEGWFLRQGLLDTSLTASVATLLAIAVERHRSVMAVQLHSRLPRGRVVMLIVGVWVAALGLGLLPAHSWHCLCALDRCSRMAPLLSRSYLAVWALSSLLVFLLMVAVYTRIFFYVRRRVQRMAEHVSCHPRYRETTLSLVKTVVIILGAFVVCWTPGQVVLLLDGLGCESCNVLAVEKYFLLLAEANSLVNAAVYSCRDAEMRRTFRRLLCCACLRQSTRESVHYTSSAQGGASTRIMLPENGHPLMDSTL
Procedure: as §1

LPA3 receptor [3] = molecular target: T3, LPA3 receptor (Homo sapiens, UniProt Q9UBY5); assay: LPA3 receptor phosphorylation ([32P]Pi labeling, immunoprecipitation); type: cell-based
T3 sequence (Q9UBY5 1-353): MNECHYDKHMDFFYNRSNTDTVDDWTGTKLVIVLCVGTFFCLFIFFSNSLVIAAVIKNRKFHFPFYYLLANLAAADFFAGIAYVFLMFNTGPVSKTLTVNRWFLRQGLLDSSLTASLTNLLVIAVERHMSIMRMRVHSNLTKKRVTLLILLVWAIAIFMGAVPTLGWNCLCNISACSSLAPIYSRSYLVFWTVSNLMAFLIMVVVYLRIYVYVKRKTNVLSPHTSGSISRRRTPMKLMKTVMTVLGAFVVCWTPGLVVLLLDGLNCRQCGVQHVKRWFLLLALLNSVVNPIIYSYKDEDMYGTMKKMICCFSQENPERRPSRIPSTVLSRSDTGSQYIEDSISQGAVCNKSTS

ERK 1/2 = ERK 1/2 phosphorylation (Western blotting) in C9 cells overexpressing LPA1-3; type: cell-based, rat
Procedure: Cells were cultured to near confluence in 6 well plates and stimulated with the agents tested for the times indicated. Total cellular extracts were obtained by lysing the cells in Laemmli’s sample buffer containing 5% β-mercaptoethanol. The cell extracts were subject to 10% SDS-PAGE and transferred to nitrocellulose membranes. Membranes from samples obtained in parallel were incubated overnight at 4°C, with anti-pERK 1/2 (1:2000) or anti ERK 1/2 (1:2000). The membranes were washed and incubated for 1 h at room temperature with a horseradish peroxidase-conjugated secondary antibody (1:10,000) for enhanced chemiluminescence detection.

LPA1 receptor [4] = molecular target: T1, LPA1 receptor; assay: Heterologous (PMA) / homologous (LPA) desensitization of LPA-induced calcium response, LPA1 cells; type: cell-based
Procedure: (§2) This procedure has been described previously. Briefly, cells were loaded with 2.5 μM Fura-2 AM in Krebs–Ringer–Hepes containing 0.05% bovine serum albumin (pH 7.4) for 1 h at 37°C and then washed to eliminate unincorporated indicator. Determinations were carried in an AMINCO-Bowman Series 2 luminescence spectrometer, employing 340 and 380 nm excitation wavelengths and an emission wavelength of 510 nm; chopper interval was 0.5 sec. The intracellular calcium concentration was calculated as described by Grynkiewicz et al.. In the experiments where prolonged incubation was required (resensitization studies), cells were stimulated, washed, and the incubation was continued in the presence of Fura-2 AM, to avoid dye depletion.
(§3) Agonists-mediated decreases occurred in a concentration-dependent fashion, with a maximum at the concentration of ~ 100 nM. […] It is worth noticing that the shift in the curves was more pronounced in LPA1- or LPA3-expressing cells, than in those that expressed the LPA2 subtype.
(§4) Plotted are the increases in calcium as the percentage of that obtained in cells preincubated without any agent as mean ± S. E. M. of 6 experiments using different cell preparations.

LPA2 receptor [5] = molecular target: T2, LPA2 receptor; assay: Heterologous (PMA) / homologous (LPA) desensitization of LPA-induced calcium response, LPA2 cells; type: cell-based
Procedure: as §2, §3, §4

LPA3 receptor [6] = molecular target: T3, LPA3 receptor; assay: Heterologous (PMA) / homologous (LPA) desensitization of LPA-induced calcium response, LPA3 cells; type: cell-based
Procedure: as §2, §3, §4

LPA1 receptor [7] = molecular target: T1, LPA1 receptor; assay: LPA1 receptor internalization, confocal imaging; type: cell-based; conditions: 1 μM agent, 30 or 60 min, LPA1 cells
Procedure: (§5) Cells were seeded at approximately 30% confluence onto glass-bottomed Petri dishes and cultured for 3 h at 37°C in media containing 1% serum. After treatment, cells were washed three times with phosphate buffered saline and fixed with 4% paraformaldehyde in 0.1 M phosphate buffer for 20 min at room temperature; samples were then washed three additional times with phosphate buffered saline. The fluorescent images were acquired with an Olympus Fluoview FV10 confocal microscope with a water-immersion objective (60X). To determine receptor internalization, the plasma membrane was delineated utilizing the differential interference contrast imaging, and fluorescence in this region was quantified employing the ImageJ software. At least 5 or 6 images of different cultures were taken for each condition. Data were normalized as follows: for each experiment, fluorescence (arbitrary units) at the plasma membrane of baseline samples were pooled and the average was considered as 100%.

LPA2 receptor [8] = molecular target: T2, LPA2 receptor; assay: LPA2 receptor internalization, confocal imaging; type: cell-based; conditions: 1 μM agent, 30 or 60 min, LPA2 cells
Procedure: as §5

LPA3 receptor [9] = molecular target: T3, LPA3 receptor; assay: LPA3 receptor internalization, confocal imaging; type: cell-based; conditions: 1 μM agent, 30 or 60 min, LPA3 cells
Procedure: as §5

[10] = read-out: IC50, inhibition of LPA-induced calcium response (heterologous desensitization)

T1 sequence (P61793 whole entry): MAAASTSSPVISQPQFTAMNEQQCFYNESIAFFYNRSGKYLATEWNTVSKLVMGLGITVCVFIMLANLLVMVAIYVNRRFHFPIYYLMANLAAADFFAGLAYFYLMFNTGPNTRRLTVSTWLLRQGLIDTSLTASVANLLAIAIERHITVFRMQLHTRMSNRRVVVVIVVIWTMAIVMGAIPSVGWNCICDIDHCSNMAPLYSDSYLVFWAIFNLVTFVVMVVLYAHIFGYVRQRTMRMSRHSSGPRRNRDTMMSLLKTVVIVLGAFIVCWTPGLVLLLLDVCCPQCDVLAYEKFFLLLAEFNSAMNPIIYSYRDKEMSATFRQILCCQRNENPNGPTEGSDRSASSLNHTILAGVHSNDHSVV

## COc1cc2ncnc(Nc3cccc(Cl)c3)c2cc1OC [AG1478]
LPA1 receptor [1]; 10 μM AG1478 30 min, then 1 μM LPA 15 min, LPA1 cells
  effect on LPA-induced receptor phosphorylation: markedly reduced (but did not abolish)
LPA2 receptor [2]; 10 μM AG1478 30 min, then 1 μM LPA 15 min, LPA2 cells
  effect on LPA-induced receptor phosphorylation: markedly reduced (but did not abolish)
LPA3 receptor [3]; 10 μM AG1478 30 min, then 1 μM LPA 15 min, LPA3 cells
  effect on LPA-induced receptor phosphorylation: markedly reduced (but did not abolish)
ERK 1/2; 10 μM AG1478 30 min, cells expressing LPA1 receptors
  effect on baseline phospho-ERK signal: did not alter it
ERK 1/2; 10 μM AG1478 30 min, cells overexpressing LPA2, statistically insignificant
  effect on baseline phospho-ERK signal: decrease it
ERK 1/2; 10 μM AG1478 30 min, cells overexpressing LPA3, statistically significant
  effect on baseline phospho-ERK signal: decrease it
ERK 1/2; 10 μM AG1478 30 min, then 1 μM LPA or 100 ng/ml EGF 5 min
  effect on LPA- and EGF-induced ERK phosphorylation: clearly diminished the effect of both growth factors

## CCCCCCCCCCCCCC(=O)O[C@@H]1[C@@H](C)[C@@]2(O)[C@@H](C=C(CO)C[C@]3(O)C(=O)C(C)=C[C@@H]23)[C@@H]2C(C)(C)[C@]12OC(C)=O [PMA, phorbol myristate acetate]
LPA1 receptor [4]; [10]
  IC50: 1 to 3 nM
LPA2 receptor [5]; LPA2 cells, highest PMA concentration tested
  remaining calcium response to LPA: 30–40%
LPA2 receptor [5]; [10]
  IC50: 3 to 10 nM
LPA3 receptor [6]; [10]
  IC50: 3 to 10 nM
LPA1 receptor [1]
  EC50: 3 to 10 nM
LPA1 receptor [1]; 1 μM agent, LPA1 cells
  time to maximum receptor phosphorylation: ≤ 5 min
LPA1 receptor [1]; 15 min incubation, LPA1-overexpressing cells
  concentration at which receptor phosphorylation saturates: 100 nM
LPA2 receptor [2]; 1 μM agent, LPA2 cells
  time to maximum receptor phosphorylation: ≤ 5 min
LPA2 receptor [2]; 15 min incubation, LPA2-overexpressing cells, shift to higher concentrations
  concentration-response curve, receptor phosphorylation: no clear saturation was obtained
LPA3 receptor [3]
  EC50: 3 to 10 nM
LPA3 receptor [3]; 1 μM agent, LPA3 cells
  time to maximum receptor phosphorylation: ≤ 5 min
LPA3 receptor [3]; 15 min incubation, LPA3-overexpressing cells
  concentration at which receptor phosphorylation saturates: 100 nM
LPA1 receptor [7]
  receptor internalization (fluorescence at the plasma membrane): markedly decreasing fluorescence at the plasma membrane level
LPA2 receptor [8]
  receptor internalization (decrease in fluorescence at the plasma membrane, compared with other subtypes): much less intense
LPA3 receptor [9]
  receptor internalization (fluorescence at the plasma membrane): markedly decreasing fluorescence at the plasma membrane level

## CN(C)CCCn1cc(C2=C(c3c[nH]c4ccccc34)C(=O)NC2=O)c2ccccc21 [bisindolylmaleimide I, Bisindolylmaleimide I]
LPA1 receptor [4]; 15 min preincubation with inhibitor, 1 μM LPA, LPA1 cells
  effect on LPA-induced desensitization: unable to alter LPA-induced desensitization
LPA1 receptor [4]; 15 min preincubation with inhibitor, 1 μM PMA, LPA1 cells
  effect on PMA-induced desensitization: markedly diminished PMA-induced desensitization
LPA2 receptor [5]; 15 min preincubation with inhibitor, 1 μM LPA, LPA2 cells
  effect on LPA-induced desensitization: unable to alter LPA-induced desensitization
LPA2 receptor [5]; 15 min preincubation with inhibitor, 1 μM PMA, LPA2 cells
  effect on PMA-induced desensitization: markedly diminished PMA-induced desensitization
LPA3 receptor [6]; 15 min preincubation with inhibitor, 1 μM LPA, LPA3 cells
  effect on LPA-induced desensitization: unable to alter LPA-induced desensitization
LPA3 receptor [6]; 15 min preincubation with inhibitor, 1 μM PMA, LPA3 cells
  effect on PMA-induced desensitization: markedly diminished PMA-induced desensitization

## EGF: epidermal growth factor, obtained from Preprotech (NSDSECPLSHDGYCLHDGVCMYIEALDKYACNCVVGYIGERCQYRDLKWWELR; UniProt P01133 971-1023, looked up)
ERK 1/2; 100 ng/ml EGF, 5 min, cells overexpressing LPA1-3
  increase in ERK phosphorylation: ~ 4 fold
